Entries after “also recorded” stand apart in the source; their conditions may differ. Structures can show the parent of a compound that is named as a salt. Where two headings read alike, the source gives them in different places.
What was measured:
[1] = tested on: iMPCCs (iHep micropatterned co-cultures); conditions: human
[2] = tested on: primary hepatocytes (HUM4011, Triangle Research Labs); conditions: human
[3] = tested on: primary hepatocyte sandwich culture; conditions: human, cited from earlier work
[4] = cited from earlier work; for DILI Cat (DILI category): human, in vivo; for DILI Sev (DILI severity score from the LTKB of the FDA): negative number: withdrawn from the market, higher positive numbers, greater DILI concern
[5] = tested on: primary human hepatocytes in MPCCs; conditions: cited from earlier work
[6] = tested on: iCCs (confluent monolayer cultures of iHeps); conditions: human; for Toxicity call in iCCs: 6 days
[7] = tested on: iMPCCs (iHep micropatterned co-cultures); experiment: Drug toxicity screening in iMPCCs (albumin, ATP, urea; binary decision and TC50); conditions: interpolated concentration at which activity decreases by 50% of DMSO-only controls
iMPCCs [8] = experiment: 8-day drug toxicity study in iMPCCs (albumin and urea); conditions: 8 days, multiple doses
CYP2C9 and CYP3A4 [9] = experiment: Drug-mediated CYP enzyme induction in iCCs; conditions: rifampicin 25 μM, phenobarbital 1 mM, 4 days
CYP2C9 and CYP3A4 [10] = conditions: human
CYP1A2 = CYP1A2 induction in iMPCCs (7-ethoxyresorufin O-dealkylation); format: cell-based, human
iMPCCs [11] = experiment: Drug-drug interaction: acetaminophen with BSO in iMPCCs; format: cell-based, human; conditions: APAP 25·Cmax and 50·Cmax, BSO 200 μM
[12] = total human plasma concentration; cited from earlier work
Throughout, for DILI Cat (DILI category): key: P1: DILI type 1, dose dependent (toxic); P2: DILI type 2, idiosyncratic (toxic); N1: not known to cause liver injury (nontoxic); N2: sporadic cases (<10) of liver injury reported but generally considered safe drug to use by doctors (nontoxic); O1: hepatotoxic in animals untested in humans (toxic); O2: elevated liver enzymes observed in humans but does not lead to frank liver toxicity (nontoxic).

For `NC(=O)NO` [Hydroxyurea], the “TC50 in iMPCCs, ATP” value ([1]; 6 days) was 49358.3 µM.
In the case of `O=C(O)/C=C\C(=O)O` [Maleic acid], the “Toxicity call in another donor of primary hepatocytes” value (shortened to “Toxicity call in another donor”) [2] was “borderline positive”.
In the case of `Cc1ccc(C(=O)c2cc(O)c(O)c([N+](=O)[O-])c2)cc1` [tolcapone], the “Albumin secretions, time- and dose-dependent toxicity” value [1] was “time- and dose-dependent toxicities”.
For `O=P1(N(CCCl)CCCl)NCCCO1` (centres unmarked) [Cyclophosphamide], the “Model predictions Sand (binary decision in sandwich cultures)” value (from here on “Model predictions Sand”) ([3]; primary hepatocyte sandwich culture) is given as “−”.
In the case of `O=C(O)Cc1ccccc1Nc1c(Cl)cccc1Cl` [Diclofenac], the “DILI Cat (DILI category)” value [4] is listed as “P2”, the “DILI Sev (DILI severity score from the LTKB of the FDA)” value (“DILI Sev” for short) [4] is listed as 7 and the “TC50 in MPCCs, Urea” value [5] is listed as 208.2 µM.
In the case of `CC(C(=O)O)c1ccc(-c2ccccc2)c(F)c1` (centres unmarked) [Flurbiprofen], the “DILI Cat (DILI category)” value [4] is listed as “P2” and the “Comparison of urea TC50 values, iHeps vs primary hepatocytes” value ([1]; 6 days) is listed as “higher TC50 in iHeps”.
In the case of `CCOc1ccc(NC(C)=O)cc1` [Phenacetin], the “Toxicity call in iCCs” value [6] was “not identified as toxic”.
In the case of `NNC(=O)c1ccncc1` [Isoniazid], the “DILI Cat (DILI category)” value [4] is given as “P1”, the “Toxicity call in iCCs” value [6] is given as “non-toxic” and the “TC50 in iMPCCs, Albumin” value [7] is given as 6681.1 µM. For the same compound, the “Toxicity call in iMPCCs / iHeps” value ([1]; 6 days) was “toxic”.
In the case of `Cc1c(C)c2c(c(C)c1O)CCC(C)(COc1ccc(CC3SC(=O)NC3=O)cc1)O2` (centres unmarked) [Troglitazone], the “DILI Cat (DILI category)” value [4] is listed as “P1”.
In the case of `COc1ccc2c(c1)[C@]13CCCC[C@@H]1[C@H](C2)N(C)CC3` [Dextromethorphan HBr], the “Model predictions ICC (binary decision of toxicity)” value [6] is given as “−”, the “Model predictions Sand” value [3] is given as “−” and the “Albumin and urea production after exposure” value (iMPCCs [8]) is given as “minimally affected”.
With `CC(=O)Nc1nnc(S(N)(=O)=O)s1` [Acetazolamide] the “Toxicity call in another donor” value [2] was “false negative”.
In the case of `O=c1n(CCCN2CCN(c3cccc(Cl)c3)CC2)nc2ccccn12` [Trazodone HCl], the “DILI Cat (DILI category)” value [4] is given as “P2” and the “TC50 in iMPCCs, ATP” value ([1]; 6 days) is given as 351.5 µM.
With `CCC1(c2ccccc2)C(=O)NC(=O)NC1=O` [phenobarbital] the “CYP induction response (functional activity) in iCCs” value (CYP2C9 and CYP3A4 [9]) was “induced functional activity; also recorded: severely blunted”, the “Induction of CYP450 (3A4, 2C9) transcripts and functions in PHH-MPCCs” value (CYP450 (3A4, 2C9)) was “induction” and the “Fold induction of CYP450 transcripts in iMPCCs relative to PHH-MPCCs” value (CYP2C9 and CYP3A4 [10]) was 60-130%. For the same compound, the “Induction in CYP450 functions in iMPCCs relative to PHH-MPCCs” value (CYP2C9 and CYP3A4 [10]) was 44-79%.
In the case of `COc1ccc2[nH]c([S+]([O-])Cc3ncc(C)c(OC)c3C)nc2c1` (centres unmarked) [omeprazole], the “CYP1A2 fold induction in iMPCCs as % of values in PHH-MPCCs” value (CYP1A2) was ~70%.
For `CN1C(C(=O)Nc2ccccn2)=C(O)c2ccccc2S1(=O)=O` [Piroxicam], the “DILI Cat (DILI category)” value [4] is listed as “P2” and the “Toxicity call in iMPCCs / iHeps” value ([1]; 6 days) is listed as “toxic”.
For `O=C1CC2(CCCC2)CC(=O)N1CCCCN1CCN(c2ncccn2)CC1` [Buspirone], the “DILI Cat (DILI category)” value [4] is listed as “N1”.
For `CC(=O)CC(c1ccccc1)c1c(O)c2ccccc2oc1=O` (centres unmarked) [Warfarin], the “Model predictions ICC (binary decision of toxicity)” value [6] is listed as “−” and the “Model predictions Sand” value [3] is listed as “−”.
In the case of `Nc1ccc(S(=O)(=O)c2ccc(N)cc2)cc1` [Dapsone], the “DILI Cat (DILI category)” value [4] is given as “P1” and the “Toxicity call in another donor” value [2] is given as “false negative”.
For `CCCCC1C(=O)N(c2ccccc2)N(c2ccccc2)C1=O` [Phenylbutazone], the “DILI Cat (DILI category)” value [4] is listed as “P2” and the “TC50 in MPCCs, ATP” value [5] is listed as 7586.7 µM.
With `CCN(CC)C(=O)/C(C#N)=C/c1cc(O)c(O)c([N+](=O)[O-])c1` [entacapone] the “Albumin secretions, time- and dose-dependent toxicity” value [1] was “time- and dose-dependent toxicities”.
For `CCN(CC)CCOc1ccc(C(=C(Cl)c2ccccc2)c2ccccc2)cc1` [Clomiphene citrate], the “DILI Cat (DILI category)” value [4] is given as “P2”.
For `CNCCc1ccccn1.Cl.Cl` [Betahistine 2HCl], the “DILI Cat (DILI category)” value [4] is given as “P2”.
For `CC(=O)Nc1ccc(O)cc1` [Acetaminophen], the “DILI Cat (DILI category)” value [4] is listed as “P2” and the “Toxicity of APAP when combined with BSO” value (iMPCCs [11]) is listed as “substantial increase in toxicity”.
For `CC(=O)[C@H]1CC[C@H]2[C@@H]3CCC4=CC(=O)CC[C@]4(C)[C@H]3CC[C@]12C` [Progesterone], the “DILI Cat (DILI category)” value [4] is given as “P2”.
For `CC(=O)O[C@]1(C(C)=O)CC[C@H]2[C@@H]3C=C(Cl)C4=CC(=O)[C@@H]5C[C@@H]5[C@]4(C)[C@H]3CC[C@@]21C` [Cyproterone acetate], the “DILI Cat (DILI category)” value [4] is listed as “O1”, the “Toxicity call in iCCs” value [6] is listed as “non-toxic” and the “Toxicity call in iMPCCs / iHeps” value ([1]; 6 days) is listed as “toxic”.
In the case of `CN(CCOc1ccc(CC2SC(=O)NC2=O)cc1)c1ccccn1` (centres unmarked) [Rosiglitazone], the “DILI Cat (DILI category)” value [4] is given as “N2”.
For `CNCCC=C1c2ccccc2CCc2ccccc21` [Nortriptyline HCl], the “DILI Cat (DILI category)” value [4] is listed as “P2”.
For `C[C@H](CS)C(=O)N1CCC[C@H]1C(=O)O` [Captopril], the “DILI Cat (DILI category)” value [4] is listed as “P2” and the “DILI Sev” value [4] is listed as 7.
In the case of `NC(=O)c1cnccn1` [Pyrazinamide], the “DILI Cat (DILI category)” value [4] is listed as “P2”, the “Toxicity call in iCCs” value [6] is listed as “non-toxic” and the “Toxicity call in iMPCCs / iHeps” value ([1]; 6 days) is listed as “toxic”.
For `CNCCC(Oc1ccc(C(F)(F)F)cc1)c1ccccc1` (centres unmarked) [Fluoxetine], the “DILI Cat (DILI category)” value [4] is given as “N2”, the “DILI Sev” value [4] is given as 3 and the Cmax [12] is given as 0.049 µM.
In the case of `C#C[C@]1(O)CC[C@H]2[C@@H]3CCC4=Cc5oncc5C[C@]4(C)[C@H]3CC[C@@]21C` [Danazol], the “DILI Cat (DILI category)” value [4] is given as “P1” and the “DILI Sev” value [4] is given as 8.
In the case of `C[C@@H]1C[C@H]2[C@@H]3CCC4=CC(=O)C=C[C@]4(C)[C@@]3(F)[C@@H](O)C[C@]2(C)[C@@]1(O)C(=O)CO` [Dexamethasone], the “DILI Cat (DILI category)” value [4] is listed as “N1” and the “Model predictions iMPCC (binary decision of toxicity)” value ([1]; 6 days) is listed as “−”.
In the case of `C#CC1(O)CC[C@H]2[C@@H]3CCC4=CC(=O)CC[C@@H]4[C@H]3CC[C@@]21CC` (mixture of isomers) [Norgestrel], the “DILI Cat (DILI category)” value [4] is given as “P2”.
For `CCCCCCCCCCCCCCCC(=O)OC[C@@H](NC(=O)C(Cl)Cl)[C@H](O)c1ccc([N+](=O)[O-])cc1` [Chloramphenicol palmitate], the “DILI Cat (DILI category)” value [4] is given as “P2”.
For `CC(=O)Oc1ccccc1C(=O)O` [Aspirin], the “DILI Cat (DILI category)” value [4] is given as “O2” and the “Model predictions iMPCC (binary decision of toxicity)” value ([1]; 6 days) is given as “−”.
For `C[C@]12CC[C@@H]3c4ccc(O)cc4CC[C@H]3[C@@H]1CCC2=O` [Estrone], the “DILI Cat (DILI category)” value [4] is listed as “P2”.
For `C=C[C@H]1C[N@@]2CC[C@H]1C[C@H]2[C@H](O)c1ccnc2ccc(OC)cc12` [Quinine], the “DILI Cat (DILI category)” value [4] is listed as “P2” and the “TC50 in iMPCCs, ATP” value ([1]; 6 days) is listed as 182.2 µM.
For `CN(C)CCCN1c2ccccc2CCc2ccccc21` [Imipramine HCl], the “DILI Cat (DILI category)” value [4] is listed as “P2”.
For `O=C(O)c1cn(C2CC2)c2cc(N3CCNCC3)c(F)cc2c1=O` [Ciprofloxacin HCl], the “TC50 in iMPCCs, ATP” value ([1]; 6 days) was 804.2 µM.
In the case of `Cc1cccc(Nc2ccccc2C(=O)O)c1C` [Mefenamic acid], the “DILI Cat (DILI category)” value [4] is given as “P2”, the “TC50 in iMPCCs, ATP” value ([1]; 6 days) is given as 2551.9 µM and the “TC50 in iMPCCs, Urea” value ([1]; 6 days) is given as 572.2 µM.
For `CCc1oc2ccccc2c1C(=O)c1cc(Br)c(O)c(Br)c1` [Benzbromarone], the “DILI Cat (DILI category)” value [4] is given as “P1”.

Source: patent US10717966B2, “Stem cell-derived hepatocytes in co-culture and uses thereof” (Colorado State University Research Foundation, priority 2014, dated 2020)
